ChEMBL document CHEMBL4354827, “Discovery of Novel, Potent, Brain-Permeable, and Orally Efficacious Positive Allosteric Modulator of α7 Nicotinic Acetylcholine Receptor [4-(5-(4-Chlorophenyl)-4-methyl-2-propionylthiophen-3-yl)benzenesulfonamide]: Structure-Activity Relationship and Preclinical Characterization” (J Med Chem, 2020)

Experiments:
Rattus norvegicus [1] = test: Improvement in social recognition scopolamine-induced Sprague-Dawley rat model of amnesia assessed as reduction in recognition index at 0.15 mg/kg, po for 7 days measured after 24 hrs (reference value: 0.93); format: functional
Rattus norvegicus [2] = test: Memory enhancement effect in scopolamine-induced Wistar rat model of amnesia assessed as exploration time for object2 in acquisition trial at 0.05 mg/kg, po for 7 days and measured on day 8 by novel object recognition test (reference value: 15.63 sec); format: functional
[3] = Cmax in human at 7.5 to 100 mg after 1 to 2.5 hrs; format: ADME; details: in vivo
Rattus norvegicus [4] = test: Memory enhancement effect in time-delay induced Wistar rat model of amnesia assessed as exploration time for object2 at 3 mg/kg, po administered as single dose after acquisition trial by novel object recognition test (reference value: 21.07 sec); format: functional
[5] = Drug concentration in Wistar rat brain at 10 mg/kg, po after 1 hr by LC-MS/MS analysis; format: ADME, organism-based; details: read-out: Drug uptake
Rattus norvegicus [6] = test: Memory enhancement effect in scopolamine-induced Wistar rat model of amnesia assessed as increase in discrimination index at 0.15 mg/kg, po for 7 days and measured on day 8 by novel object recognition test (reference value: 0.21); format: functional
[7] = Drug metabolism in rat liver microsomes assessed as metabolic rate at 1 uM preincubated for 5 mins followed by NADPH addition after 30 mins by LC-MS/MS analysis; format: ADME, Microsome; details: 0.5 h
Rattus norvegicus [8] = test: Memory enhancement effect in scopolamine-induced Wistar rat model of amnesia assessed as exploration time for novel object in retention trial at 0.05 mg/kg, po for 7 days and measured on day 8 by novel object recognition test (reference value: 12.09 sec); format: functional
[9] = Half life in BALB/c mouse at 1 mg/kg, iv after 0.083 to 144 hrs by LC-MS/MS analysis; format: ADME, organism-based; details: in vivo
[10] = Tmax in Wistar rat plasma at 10 mg/kg, po after 1 to 144 hrs by LC-MS/MS analysis; format: ADME, organism-based
Rattus norvegicus [11] = test: Memory enhancement effect in scopolamine-induced Wistar rat model of amnesia assessed as exploration time for object1 in acquisition trial at 0.05 mg/kg, po administered as single dose and measured on day 8 by novel object recognition test (reference value: 16.11 sec); format: functional
[12] = Drug level in scopolamine-induced Sprague-Dawley rat plasma at 0.05 mg/kg, po for 7 days; format: ADME, organism-based
[13] = Tmax in BALB/c mouse at 1 mg/kg, iv after 0.083 to 144 hrs by LC-MS/MS analysis; format: ADME, organism-based; details: in vivo
Rattus norvegicus [14] = test: Improvement in social recognition time delay-induced Sprague-Dawley rat model of amnesia assessed as reduction in recognition index at 1 mg/kg, po administered as single dose prior to 1 hr training and measured after 30 mins (reference value: 1); format: functional
[15] = Clearance in Beagle dog at 1 mg/kg, iv after 0.083 to 144 hrs by LC-MS/MS analysis; format: ADME, organism-based, Canis lupus familiaris; details: in vivo
[16] = Unbound brain-to-plasma concentration ratio in Wistar rat at 10 mg/kg, po after 48 hrs by LC-MS/MS analysis; format: ADME, organism-based; details: read-out: K(p,uu,brain)
Rattus norvegicus [17] = test: Memory enhancement effect in time-delay induced Wistar rat model of amnesia assessed as increase in novel object discrimination at 3 mg/kg, po administered as single dose after acquisition trial by novel object recognition test (reference value: 0.08); format: functional
[18] = Half life in Beagle dog at 1 mg/kg, iv after 0.083 to 144 hrs by LC-MS/MS analysis; format: ADME, organism-based, Canis lupus familiaris; details: in vivo
[19] = Drug concentration in Wistar rat plasma at 10 mg/kg, po after 24 hrs by LC-MS/MS analysis; format: ADME, organism-based
[20] = Protein binding in rat plasma at 5 uM incubated for 16 hrs under shaking condition by LC/MS/MS based rapid equilibrium dialysis method; format: ADME, cell-free; details: read-out: PPB (converted)
Rattus norvegicus [21] = test: Memory enhancement effect in scopolamine-induced Wistar rat model of amnesia assessed as increase in exploration time for novel object in retention trial at 0.5 mg/kg, po administered as single dose and measured on day 9 by novel object recognition test (reference value: 12.09 sec); format: functional
[22] = Cmax in Beagle dog at 1 mg/kg, iv after 0.083 to 144 hrs by LC-MS/MS analysis; format: ADME, organism-based, Canis lupus familiaris; parameters: dose 1 mg/kg, route intravenous; details: in vivo
Rattus norvegicus [23] = test: Memory enhancement effect in scopolamine-induced Wistar rat model of amnesia assessed as exploration time for object1 in acquisition trial at 0.5 mg/kg, po administered as single dose and measured on day 8 by novel object recognition test (reference value: 16.11 sec); format: functional
Cytochrome P450 2B6 = biological target: T1, Cytochrome P450 2B6 (Homo sapiens, UniProt P20813); test: Inhibition of CYP2B6 (unknown origin) up to 10 uM; format: ADME
T1 sequence (P20813 whole entry): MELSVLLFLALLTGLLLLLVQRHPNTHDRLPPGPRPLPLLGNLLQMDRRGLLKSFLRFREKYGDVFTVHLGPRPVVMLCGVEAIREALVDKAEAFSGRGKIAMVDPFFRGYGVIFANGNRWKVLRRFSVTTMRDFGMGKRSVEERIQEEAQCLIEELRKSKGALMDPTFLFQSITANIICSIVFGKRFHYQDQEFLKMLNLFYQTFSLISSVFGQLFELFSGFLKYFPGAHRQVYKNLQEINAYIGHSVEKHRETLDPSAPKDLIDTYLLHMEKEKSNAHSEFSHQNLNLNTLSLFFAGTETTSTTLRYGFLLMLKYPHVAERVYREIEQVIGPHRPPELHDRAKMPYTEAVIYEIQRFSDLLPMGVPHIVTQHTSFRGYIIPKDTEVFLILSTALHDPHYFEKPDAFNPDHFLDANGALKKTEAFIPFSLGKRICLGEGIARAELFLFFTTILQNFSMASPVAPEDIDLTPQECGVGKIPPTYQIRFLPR

[24] = Drug concentration in Wistar rat brain at 10 mg/kg, po after 8 hrs by LC-MS/MS analysis; format: ADME, organism-based; details: read-out: Drug uptake
[25] = Oral bioavailability in BALB/c mouse at 10 mg/kg after 0.25 to 144 hrs by LC-MS/MS analysis; format: ADME, organism-based; details: in vivo
Rattus norvegicus [26] = test: Memory enhancement effect in time-delay induced Wistar rat model of amnesia assessed as increase in discrimination index at 0.5 mg/kg, po for 7 days and measured on day 8 by novel object recognition test (reference value: 0.12); format: functional
[27] = Protein binding in mouse plasma at 5 uM incubated for 16 hrs under shaking condition by LC/MS/MS based rapid equilibrium dialysis method; format: ADME, cell-free; details: read-out: PPB (converted)
Rattus norvegicus [28] = test: Memory enhancement effect in time-delay induced Wistar rat model of amnesia assessed as exploration time for novel object in retention trial at 0.15 mg/kg, po for 7 days and measured on day 8 by novel object recognition test (reference value: 15.37 sec); format: functional
[29] = Cmax in Wistar rat plasma at 10 mg/kg, po after 1 to 144 hrs by LC-MS/MS analysis; format: ADME, organism-based; parameters: dose 10 mg/kg, route oral
[30] = Tmax in Beagle dog at 10 mg/kg, po after 0.25 to 144 hrs by LC-MS/MS analysis; format: ADME, organism-based, Canis lupus familiaris; details: in vivo
Rattus norvegicus [31] = test: Memory enhancement effect in time-delay induced Wistar rat model of amnesia assessed as exploration time for novel object at 1 mg/kg, po administered as single dose after acquisition trial by novel object recognition test (reference value: 12.81 sec); format: functional

`CCC(=O)c1sc(-c2ccc(Cl)cc2)c(C)c1-c1ccc(S(N)(=O)=O)cc1` gave an Activity_index (Rattus norvegicus [1]) of 0.44, a Time (Rattus norvegicus [2]) of 18.31 s and a Cmax [3] of 25.1 to 1620 ng/mL. It also gave a Time (Rattus norvegicus [4]) of 21.46 s, a concentration at 1 h [5] of 4.03 µM and an Activity_index (Rattus norvegicus [6]) of 0.5. For the same compound, the Drug metabolism [7] was 0.01 nmol/min/mg, the Time (Rattus norvegicus [8]) was 14.65 s and the half-life [9] was 840 min. It also gave a Tmax [10] of 1 h, a Time (Rattus norvegicus [11]) of 16.07 s and a concentration at 168 h [12] of 60 nM. The Tmax [13] was 4.8 min, the Activity_index (Rattus norvegicus [14]) was 0.68 and the clearance [15] was 0.7 mL/min/kg. The Kp uu at 48 h [16] was 1.15, the Activity_index (Rattus norvegicus [17]) was 0.5 and the half-life [18] was 3.67 days. The concentration at 24 h [19] was 740 nM, the fraction unbound at 16 h, 5 µM [20] was 0.0058 and the Time (Rattus norvegicus [21]) was 15.06 s. For the same compound, the Cmax [22] was 3000 nM, the Time (Rattus norvegicus [23]) was 13.94 s and the “inhibition (INH)” value (Cytochrome P450 2B6) was “Not Active”. For the same compound, the concentration at 8 h [24] was 6.39 µM, the bioavailability [25] was 57% and the Activity_index (Rattus norvegicus [26]) was 0.58. It also gave a fraction unbound at 16 h, 5 µM [27] of 0.0116, a Time (Rattus norvegicus [28]) of 7.15 s and a Cmax [29] of 900 nM. The Tmax [30] was 1.5 h and the Time (Rattus norvegicus [31]) was 24.46 s.
